Assay results reported in PMC7294993 (Science signaling, 2020).

How the values were obtained:
MRCKA (CDC42BPA) = MRCKA (CDC42BPA) (Homo sapiens, UniProt Q5VT25); assay: in vitro radioisotope […] kinase assay, 10-dose; type: biochemical
MRCKB (CDC42BPB) = MRCKB (CDC42BPB) (Homo sapiens, UniProt Q9Y5S2); assay: in vitro radioisotope […] kinase assay, 10-dose; type: biochemical
Chain of MRCKB (CDC42BPB) (Q9Y5S2 whole entry): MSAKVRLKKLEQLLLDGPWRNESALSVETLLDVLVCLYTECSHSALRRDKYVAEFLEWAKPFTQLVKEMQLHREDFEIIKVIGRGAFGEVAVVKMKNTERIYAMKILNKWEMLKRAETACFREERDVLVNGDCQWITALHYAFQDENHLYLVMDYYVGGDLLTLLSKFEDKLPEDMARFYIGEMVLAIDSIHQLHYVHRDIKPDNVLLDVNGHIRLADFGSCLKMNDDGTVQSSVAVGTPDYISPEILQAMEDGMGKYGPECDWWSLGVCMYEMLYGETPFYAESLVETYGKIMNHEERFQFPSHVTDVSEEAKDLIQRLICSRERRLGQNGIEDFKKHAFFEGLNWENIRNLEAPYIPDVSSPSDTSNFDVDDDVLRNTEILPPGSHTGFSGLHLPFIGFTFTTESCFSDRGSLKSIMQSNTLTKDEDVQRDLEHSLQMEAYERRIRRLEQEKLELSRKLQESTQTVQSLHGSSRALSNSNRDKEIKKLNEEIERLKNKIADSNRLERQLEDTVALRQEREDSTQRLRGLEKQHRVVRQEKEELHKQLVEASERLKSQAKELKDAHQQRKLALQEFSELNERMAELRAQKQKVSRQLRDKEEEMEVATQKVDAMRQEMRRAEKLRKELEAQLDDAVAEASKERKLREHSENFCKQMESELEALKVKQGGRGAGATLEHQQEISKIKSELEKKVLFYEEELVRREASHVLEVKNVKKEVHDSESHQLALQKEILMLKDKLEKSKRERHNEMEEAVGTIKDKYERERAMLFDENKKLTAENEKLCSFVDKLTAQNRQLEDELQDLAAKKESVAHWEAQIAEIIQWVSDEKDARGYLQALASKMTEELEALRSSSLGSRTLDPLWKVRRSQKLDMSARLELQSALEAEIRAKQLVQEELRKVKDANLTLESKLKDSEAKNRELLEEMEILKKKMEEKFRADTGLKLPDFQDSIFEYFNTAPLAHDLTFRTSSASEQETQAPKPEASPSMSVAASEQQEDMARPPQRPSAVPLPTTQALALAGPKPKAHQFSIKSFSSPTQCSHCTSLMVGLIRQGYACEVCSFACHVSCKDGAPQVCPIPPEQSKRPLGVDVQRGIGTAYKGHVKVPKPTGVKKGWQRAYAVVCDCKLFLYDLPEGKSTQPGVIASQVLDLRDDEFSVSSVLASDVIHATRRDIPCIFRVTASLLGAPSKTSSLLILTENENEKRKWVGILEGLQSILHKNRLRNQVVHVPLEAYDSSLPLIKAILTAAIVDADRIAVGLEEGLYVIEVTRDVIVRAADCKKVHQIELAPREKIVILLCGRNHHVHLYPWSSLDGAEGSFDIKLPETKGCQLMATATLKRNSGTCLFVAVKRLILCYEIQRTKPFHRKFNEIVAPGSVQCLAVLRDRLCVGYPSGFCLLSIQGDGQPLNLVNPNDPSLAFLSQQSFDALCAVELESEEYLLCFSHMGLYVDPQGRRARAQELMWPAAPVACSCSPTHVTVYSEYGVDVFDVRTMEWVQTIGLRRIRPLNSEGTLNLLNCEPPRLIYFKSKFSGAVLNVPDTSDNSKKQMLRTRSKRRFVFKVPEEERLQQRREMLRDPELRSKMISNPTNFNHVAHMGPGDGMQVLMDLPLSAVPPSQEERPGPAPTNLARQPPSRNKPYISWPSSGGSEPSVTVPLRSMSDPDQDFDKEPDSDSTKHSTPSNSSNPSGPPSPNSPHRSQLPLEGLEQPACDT

Chain of MRCKA (CDC42BPA) (Q5VT25 whole entry): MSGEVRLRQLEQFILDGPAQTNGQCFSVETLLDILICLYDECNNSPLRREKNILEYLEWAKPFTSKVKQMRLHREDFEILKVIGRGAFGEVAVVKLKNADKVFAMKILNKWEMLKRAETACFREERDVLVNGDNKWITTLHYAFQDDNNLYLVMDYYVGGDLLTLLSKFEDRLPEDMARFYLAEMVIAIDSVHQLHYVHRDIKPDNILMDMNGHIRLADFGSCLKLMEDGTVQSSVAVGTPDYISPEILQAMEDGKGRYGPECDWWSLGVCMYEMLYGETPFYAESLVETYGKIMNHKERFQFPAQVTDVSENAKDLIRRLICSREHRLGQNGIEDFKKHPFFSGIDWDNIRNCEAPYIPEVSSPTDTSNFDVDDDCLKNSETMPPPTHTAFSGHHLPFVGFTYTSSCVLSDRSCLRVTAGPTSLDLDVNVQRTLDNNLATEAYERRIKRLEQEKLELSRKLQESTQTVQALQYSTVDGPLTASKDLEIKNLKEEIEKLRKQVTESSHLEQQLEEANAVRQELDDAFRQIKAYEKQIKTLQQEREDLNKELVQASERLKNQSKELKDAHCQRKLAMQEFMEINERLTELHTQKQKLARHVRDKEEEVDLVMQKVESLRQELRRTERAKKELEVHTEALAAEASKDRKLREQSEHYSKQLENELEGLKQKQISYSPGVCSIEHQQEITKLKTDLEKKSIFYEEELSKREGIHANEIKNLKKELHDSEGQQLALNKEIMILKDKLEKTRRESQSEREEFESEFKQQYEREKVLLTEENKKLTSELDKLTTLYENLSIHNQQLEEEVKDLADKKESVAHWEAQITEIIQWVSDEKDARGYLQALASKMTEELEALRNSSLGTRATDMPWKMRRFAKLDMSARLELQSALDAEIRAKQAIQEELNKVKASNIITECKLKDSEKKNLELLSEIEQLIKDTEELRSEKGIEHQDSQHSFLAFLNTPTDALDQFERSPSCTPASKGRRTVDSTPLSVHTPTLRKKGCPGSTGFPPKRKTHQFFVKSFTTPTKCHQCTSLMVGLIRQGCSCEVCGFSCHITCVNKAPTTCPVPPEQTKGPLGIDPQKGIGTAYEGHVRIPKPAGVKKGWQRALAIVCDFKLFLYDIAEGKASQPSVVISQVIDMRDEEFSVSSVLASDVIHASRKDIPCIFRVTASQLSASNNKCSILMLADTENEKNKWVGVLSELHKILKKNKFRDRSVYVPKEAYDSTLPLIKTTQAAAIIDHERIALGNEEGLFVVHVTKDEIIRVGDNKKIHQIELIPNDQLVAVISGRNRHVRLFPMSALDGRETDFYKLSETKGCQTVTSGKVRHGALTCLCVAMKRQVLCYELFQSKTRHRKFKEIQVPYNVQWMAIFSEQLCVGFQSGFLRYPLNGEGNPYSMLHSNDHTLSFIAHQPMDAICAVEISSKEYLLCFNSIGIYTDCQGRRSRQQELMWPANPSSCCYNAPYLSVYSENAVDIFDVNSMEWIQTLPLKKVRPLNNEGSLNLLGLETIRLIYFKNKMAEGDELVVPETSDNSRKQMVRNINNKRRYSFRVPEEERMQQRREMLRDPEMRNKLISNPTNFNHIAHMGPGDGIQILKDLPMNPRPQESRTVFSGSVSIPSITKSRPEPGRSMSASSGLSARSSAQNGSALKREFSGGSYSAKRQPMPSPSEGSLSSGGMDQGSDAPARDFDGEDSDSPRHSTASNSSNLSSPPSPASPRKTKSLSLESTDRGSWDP

Substance: BDP9066
- EC50 (MRCKA (CDC42BPA)): 0.065 µM
- EC50 (MRCKB (CDC42BPB)): 0.072 µM
